One assay deals with VIM-1 (Pseudomonas aeruginosa (strain ATCC 15692 / DSM 22644 / CIP 104116 / JCM 14847 / LMG 12228 / 1C / PRS 101 / PAO1), UniProt A0A0F7KYQ8). Put plainly: Enzyme activity: determination of IC50, fluorescence assay with CCF2-FA substrate (VIM-1). In kind it is biochemical. As to conditions: CCF2-FA substrate.
For assay [1], the system named is Escherichia coli expressing NDM-1 (CLB30016). Put plainly: Antibiotic potentiation activity: synergistic concentration (MITC95) with imipenem, OD600 growth. Format: cell-based. As to conditions: (CLB30016, NDM-1), 95% growth inhibition. An outline of the steps: (§1)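 Steps: colonies grown overnight at 35 °C; resuspended in saline to OD600 0.11–0.15 by strain; diluted 1:100 into 1.1× CAMHB; imipenem then compound added (antibiotic 4 μg/ml in assay); incubated 35 °C for 22–24 h; absorbance measured.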

Assay [2] relates to Klebsiella pneumoniae expressing VIM-1 (IHMA599644). The assay is described as above. Format: cell-based. To be noted: Klebsiella pneumoniae IHMA599644 (VIM-1), 95% growth inhibition. An outline of the steps:
as §1

Assay [3] deals with Serratia marcescens expressing IMP-1 (CL5741). The description is as above. In kind it is cell-based. As to conditions: Serratia marcescens CL5741 (IMP-1), 95% growth inhibition. An outline of the steps: as §1
In the next assay the target is IMP-1 (Serratia marcescens, UniProt P52699). Put plainly: biochemical. Format: biochemical. To be noted: IMP-1 enzyme, CCF2-FA substrate; read-out: IMP-1 IC50.
Chain of IMP-1 (P52699 whole entry, looked up): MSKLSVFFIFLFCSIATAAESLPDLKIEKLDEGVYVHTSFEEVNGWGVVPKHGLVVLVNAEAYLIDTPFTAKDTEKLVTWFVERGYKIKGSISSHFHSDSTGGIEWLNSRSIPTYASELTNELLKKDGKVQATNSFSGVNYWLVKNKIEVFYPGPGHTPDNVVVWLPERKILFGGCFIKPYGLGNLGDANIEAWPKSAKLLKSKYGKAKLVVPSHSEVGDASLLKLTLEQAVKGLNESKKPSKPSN
A further assay has as its target NDM-1 (Klebsiella pneumoniae, UniProt C7C422). Put plainly: biochemical. In kind it is biochemical. To be noted: NDM-1 enzyme, CCF2-FA substrate; read-out: NDM-1 IC50.
The mark [4] stands for this setting: VIM-1 enzyme, read-out: VIM-1 IC50.

Each structure is given as a SMILES string. Where two headings read alike, the source gives them in different places.

Broadly, the IC50 is the point on the concentration scale where inhibition reaches its midpoint.

Chain of NDM-1 (C7C422 whole entry, looked up, species assumed): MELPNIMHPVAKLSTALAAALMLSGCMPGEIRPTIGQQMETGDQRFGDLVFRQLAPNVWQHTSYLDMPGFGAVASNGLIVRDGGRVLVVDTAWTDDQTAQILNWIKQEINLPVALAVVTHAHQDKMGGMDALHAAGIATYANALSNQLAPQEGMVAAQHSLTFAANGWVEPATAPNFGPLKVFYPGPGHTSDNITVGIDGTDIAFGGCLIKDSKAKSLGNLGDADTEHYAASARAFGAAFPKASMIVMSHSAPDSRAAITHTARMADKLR

For the molecule `NCCCN1CCC(c2ccc(-c3cccc(S(N)(=O)=O)c3-c3nnn[nH]3)cc2)CC1` [Example 613, 3-[4-[1-(3-aminopropyl)-4-piperidyl]phenyl]-2-(1H-tetrazol-5-yl)benzenesulfonamide], the half-maximal inhibitory concentration (IC50) was determined as 253 nM on VIM-1 (setting [4]), 36.3 nM on IMP-1 and 14.1 nM at NDM-1. Further, the “Escherichia coli MITC95” value in assay [1] is 0.25 µM. Moreover, in assay [2], the “Klebsiella pneumoniae MITC95” value was 18.75 µM. In assay [3], the “Serratia marcescens MITC95” value came to 0.543 µM.
Turning to `CC(C)[C@@H](N)CN1CCC(c2ccc(-c3cccc(S(N)(=O)=O)c3-c3nnn[nH]3)cc2)CC1` [Example 614, 3-[4-[1-[(2R)-2-amino-3-methyl-butyl]-4-piperidyl]phenyl]-2-(1H-tetrazol-5-yl)benzenesulfonamide], the 50% inhibitory concentration (IC50) at VIM-1 (setting [4]) came to 505 nM; at IMP-1 it was 11.6 nM; at NDM-1, 5.89 nM. The “Escherichia coli MITC95” value in assay [1] amounted to 1.172 µM. Besides, in assay [2], the “Klebsiella pneumoniae MITC95” value was above 200 µM. Also, the “Serratia marcescens MITC95” value in assay [3] stood at 1.563 µM.
Take `CC(C)[C@H](N)CN1CCC(c2ccc(-c3cccc(S(N)(=O)=O)c3-c3nnn[nH]3)cc2)CC1` [Example 615, 3-[4-[1-[(2S)-2-amino-3-methyl-butyl]-4-piperidyl]phenyl]-2-(1H-tetrazol-5-yl)benzenesulfonamide]: the IC50 at VIM-1 (setting [4]) came out at 621 nM; on IMP-1 it was 16.7 nM; on NDM-1, 9.84 nM. Also, the “Escherichia coli MITC95” value in assay [1] worked out at 0.7813 µM. Further, the “Klebsiella pneumoniae MITC95” value in assay [2] is above 200 µM. For the same molecule, the “Serratia marcescens MITC95” value in assay [3] is 1.172 µM.
Turning to `NCCN1CCC(c2ccc(-c3cccc(S(N)(=O)=O)c3-c3nnn[nH]3)cc2)CC1` [Example 616, 3-[4-[1-(2-aminoethyl)-4-piperidyl]phenyl]-2-(1H-tetrazol-5-yl)benzenesulfonamide], the IC50 is 276 nM on VIM-1 (setting [4]), 14.4 nM on IMP-1 and 4.37 nM at NDM-1. Besides, the “Escherichia coli MITC95” value in assay [1] was 0.3906 µM. For the same molecule, the “Klebsiella pneumoniae MITC95” value in assay [2] is 75 µM. The “Serratia marcescens MITC95” value in assay [3] came out at 0.5859 µM.
With `NS(=O)(=O)c1cccc(-c2ccc(C3CCN(CC4CNC4)CC3)cc2)c1-c1nnn[nH]1` [Example 617, 3-[4-[1-(azetidin-3-ylmethyl)-4-piperidyl]phenyl]-2-(1H-tetrazol-5-yl)benzenesulfonamide], the half-inhibitory concentration (IC50) at VIM-1 (setting [4]) was 334 nM; at IMP-1, 9.66 nM; on NDM-1, 10 nM. The “Escherichia coli MITC95” value in assay [1] was 0.25 µM. In assay [2], the “Klebsiella pneumoniae MITC95” value turned out to be 37.5 µM. The “Serratia marcescens MITC95” value in assay [3] was 0.2969 µM.
With `NS(=O)(=O)c1cccc(-c2ccc(C3CCN(CC4CCNC4)CC3)cc2)c1-c1nnn[nH]1` (stereo not drawn) [Example 618, 3-[4-[1-(pyrrolidin-3-ylmethyl)-4-piperidyl]phenyl]-2-(1H-tetrazol-5-yl)benzenesulfonamide], the values for the half-inhibitory concentration (IC50) at VIM-1 (setting [4]), at IMP-1 and on NDM-1 were 345 nM, 16.1 nM and 11.7 nM, respectively. Also, in assay [1], the “Escherichia coli MITC95” value is 0.3906 µM. Besides, the “Klebsiella pneumoniae MITC95” value in assay [2] amounted to 75 µM. For the same molecule, in assay [3], the “Serratia marcescens MITC95” value amounted to 0.3906 µM.
For `NS(=O)(=O)c1cccc(-c2ccc(C3CCN(C[C@H]4CNCCO4)CC3)cc2)c1-c1nnn[nH]1` [Example 619], the half-maximal inhibitory concentration (IC50) is 388 nM against VIM-1 (VIM-1 IC50, VIM-1 enzyme); 10.8 nM at IMP-1; 8.23 nM at NDM-1. In addition, in assay [1], the “Escherichia coli MITC95” value was 0.7813 µM. Also, the “Klebsiella pneumoniae MITC95” value in assay [2] amounted to 150 µM. In assay [3], the “Serratia marcescens MITC95” value turned out to be 0.9766 µM.
As for `NS(=O)(=O)c1cccc(-c2ccc(N3CCC(CO)C3)nc2)c1-c1nnn[nH]1` (stereo not drawn) [Example 622, 3-[6-[3-(hydroxymethyl)pyrrolidin-1-yl]-3-pyridyl]-2-(1H-tetrazol-5-yl)benzenesulfonamide], the concentration for half-maximal inhibition (IC50) on VIM-1 (setting [4]) came to 142 nM; at IMP-1, 85.6 nM; at NDM-1, 4.39 nM. For the same molecule, the “Escherichia coli MITC95” value in assay [1] worked out at 0.9766 µM. In addition, the “Klebsiella pneumoniae MITC95” value in assay [2] is above 200 µM. The “Serratia marcescens MITC95” value in assay [3] was found to be 6.25 µM.
Turning to `CC(=O)NC1CCN(c2ccc(-c3cccc(S(N)(=O)=O)c3-c3nnn[nH]3)cn2)C1` (stereo not drawn) [Example 623, N-[1-[5-[3-sulfamoyl-2-(1H-tetrazol-5-yl)phenyl]-2-pyridyl]pyrrolidin-3-yl]acetamide], the IC50 at VIM-1 (VIM-1 IC50, VIM-1 enzyme) turned out to be 207 nM; on IMP-1, 79.5 nM; on NDM-1, 7.94 nM. Moreover, the “Escherichia coli MITC95” value in assay [1] was determined as 1.953 µM. In addition, the “Klebsiella pneumoniae MITC95” value in assay [2] is 150 µM. The “Serratia marcescens MITC95” value in assay [3] is 6.25 µM.
`CC(C)(O)C1CN(c2ccc(-c3cccc(S(N)(=O)=O)c3-c3nnn[nH]3)cn2)C1` [Example 624, 3-[6-[3-(1-hydroxy-1-methyl-ethyl)azetidin-1-yl]-3-pyridyl]-2-(1H-tetrazol-5-yl)benzenesulfonamide]: the half-maximal inhibitory concentration (IC50) came to 559 nM on VIM-1 (setting [4]), 86.2 nM at IMP-1 and 10.2 nM at NDM-1. In assay [1], the “Escherichia coli MITC95” value stood at 7.813 µM. In addition, the “Klebsiella pneumoniae MITC95” value in assay [2] was above 200 µM. In addition, in assay [3], the “Serratia marcescens MITC95” value was 12.5 µM.
In the case of `CN(C)C1(C)CN(c2ccc(-c3cccc(S(N)(=O)=O)c3-c3nnn[nH]3)cn2)C1` [Example 625, 3-[6-[3-(dimethylamino)-3-methyl-azetidin-1-yl]-3-pyridyl]-2-(1H-tetrazol-5-yl)benzenesulfonamide], the IC50 on VIM-1 (setting [4]) worked out at 1350 nM; on IMP-1 it was 203 nM; on NDM-1 it was 37 nM. Also, in assay [1], the “Escherichia coli MITC95” value came out at 2.344 µM. Also, in assay [2], the “Klebsiella pneumoniae MITC95” value is above 200 µM. For the same molecule, the “Serratia marcescens MITC95” value in assay [3] was determined as 12.5 µM.
With `CN(C)C1CCN(c2ccc(-c3cccc(S(N)(=O)=O)c3-c3nnn[nH]3)cn2)C1` (stereo not drawn) [Example 627, 3-[6-[3-(dimethylamino)pyrrolidin-1-yl]-3-pyridyl]-2-(1H-tetrazol-5-yl)benzenesulfonamide], the half-maximal inhibitory concentration (IC50) on VIM-1 (setting [4]) stood at 830 nM; on IMP-1, 415 nM; on NDM-1, 32.9 nM. The “Escherichia coli MITC95” value in assay [1] turned out to be 1.172 µM. Moreover, the “Klebsiella pneumoniae MITC95” value in assay [2] was 100 µM. Moreover, the “Serratia marcescens MITC95” value in assay [3] amounted to 12.5 µM.
`CN(CCN1CCCC1)c1ccc(-c2cccc(S(N)(=O)=O)c2-c2nnn[nH]2)cn1` [Example 629, 3-[6-[methyl(2-pyrrolidin-1-ylethyl)amino]-3-pyridyl]-2-(1H-tetrazol-5-yl)benzenesulfonamide]: the IC50 is 668 nM at VIM-1 (setting [4]), 799 nM on IMP-1 and 43.6 nM on NDM-1. Besides, the “Escherichia coli MITC95” value in assay [1] turned out to be 4.688 µM. The “Klebsiella pneumoniae MITC95” value in assay [2] was 100 µM. The “Serratia marcescens MITC95” value in assay [3] amounted to 25 µM.
With `NS(=O)(=O)c1cccc(-c2ccc(N3CC(CN4CCCC4)C3)nc2)c1-c1nnn[nH]1` [Example 630, 3-[6-[3-(pyrrolidin-1-ylmethyl)azetidin-1-yl]-3-pyridyl]-2-(1H-tetrazol-5-yl)benzenesulfonamide], the half-inhibitory concentration (IC50) on VIM-1 (setting [4]) came out at 635 nM; on IMP-1 it was 388 nM; on NDM-1, 32.3 nM. Besides, the “Escherichia coli MITC95” value in assay [1] came out at 1.172 µM. For the same molecule, the “Klebsiella pneumoniae MITC95” value in assay [2] came to 50 µM. Also, the “Serratia marcescens MITC95” value in assay [3] was found to be 12.5 µM.
As for `CS(=O)(=O)C1CN(c2ccc(-c3cccc(S(N)(=O)=O)c3-c3nnn[nH]3)cn2)C1` [Example 631, 3-[6-(3-methylsulfonylazetidin-1-yl)-3-pyridyl]-2-(1H-tetrazol-5-yl)benzenesulfonamide], the figures for the IC50 at VIM-1 (setting [4]), at IMP-1 and at NDM-1 were 110 nM, 39.9 nM and 8.25 nM, respectively. In assay [1], the “Escherichia coli MITC95” value was 1.953 µM. Also, the “Klebsiella pneumoniae MITC95” value in assay [2] was 25 µM. Moreover, in assay [3], the “Serratia marcescens MITC95” value was 6.25 µM.
For the molecule `CN1CCC2(CCN(c3ccc(-c4cccc(S(N)(=O)=O)c4-c4nnn[nH]4)cn3)C2)C1` (stereo not drawn) [Example 632, 3-[6-(7-methyl-2,7-diazaspiro[4.4]nonan-2-yl)-3-pyridyl]-2-(1H-tetrazol-5-yl)benzenesulfonamide], the IC50 on VIM-1 (setting [4]) is 482 nM; at IMP-1, 254 nM; at NDM-1 it was 26.8 nM. The “Escherichia coli MITC95” value in assay [1] turned out to be 1.172 µM. Moreover, the “Klebsiella pneumoniae MITC95” value in assay [2] was found to be 100 µM. In addition, in assay [3], the “Serratia marcescens MITC95” value came to 6.25 µM.
For `NS(=O)(=O)c1cccc(-c2ccc(N3CCC(O)C3)nc2)c1-c1nnn[nH]1` (stereo not drawn) [Example 633, 3-[6-(3-hydroxypyrrolidin-1-yl)-3-pyridyl]-2-(1H-tetrazol-5-yl)benzenesulfonamide], the figures for the half-maximal inhibitory concentration (IC50) at VIM-1 (setting [4]), on IMP-1 and at NDM-1 were 120 nM, 66.4 nM and 4.88 nM, respectively. The “Escherichia coli MITC95” value in assay [1] was 0.125 µM. Besides, the “Klebsiella pneumoniae MITC95” value in assay [2] was 37.5 µM. For the same molecule, the “Serratia marcescens MITC95” value in assay [3] turned out to be 4.833 µM.

(Values after patent publication US9708336B2, “Metallo-beta-lactamase inhibitors” (priority 2014, dated 2017).)
